Experimental data from PubChem BioAssay (NCI).
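48-hour exposure; five concentrations; linearly interpolated endpoints. Definition used: TGI = concentration required for complete inhibition of growth.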

Experiments:
Assay in all cases: growth of human tumour cells (NCI), 48 h
786-0 renal = tested on: 786-0 renal
A549 NSCLC = tested on: A549 NSCLC
ACHN renal = tested on: ACHN renal
BT-549 breast = tested on: BT-549 breast
CAKI-1 renal = tested on: CAKI-1 renal
CCRF-CEM leukemia = tested on: CCRF-CEM leukemia
COLO 205 colon = tested on: COLO 205 colon
DU-145 prostate = tested on: DU-145 prostate
EKVX NSCLC = tested on: EKVX NSCLC
HCC-2998 colon = tested on: HCC-2998 colon
HCT-116 colon = tested on: HCT-116 colon
HCT-15 colon = tested on: HCT-15 colon
HL-60(TB) leukemia = tested on: HL-60(TB) leukemia
HOP-62 NSCLC = tested on: HOP-62 NSCLC
HOP-92 NSCLC = tested on: HOP-92 NSCLC
HS 578T breast = tested on: HS 578T breast
HT29 colon = tested on: HT29 colon
IGROV1 ovarian = tested on: IGROV1 ovarian
K-562 leukemia = tested on: K-562 leukemia
KM12 colon = tested on: KM12 colon
LOX IMVI melanoma = tested on: LOX IMVI melanoma
M14 melanoma = tested on: M14 melanoma
MALME-3M melanoma = tested on: MALME-3M melanoma
MCF7 breast = tested on: MCF7 breast
MDA-MB-231 breast = tested on: MDA-MB-231 breast
MDA-MB-435 = tested on: MDA-MB-435
MDA-N = tested on: MDA-N
MOLT-4 leukemia = tested on: MOLT-4 leukemia
NCI-H226 lung = tested on: NCI-H226 lung
NCI-H23 lung = tested on: NCI-H23 lung
NCI-H460 lung = tested on: NCI-H460 lung
NCI-H522 lung = tested on: NCI-H522 lung
NCI/ADR-RES ovarian = tested on: NCI/ADR-RES ovarian
OVCAR-3 ovarian = tested on: OVCAR-3 ovarian
OVCAR-4 ovarian = tested on: OVCAR-4 ovarian
OVCAR-5 ovarian = tested on: OVCAR-5 ovarian
OVCAR-8 ovarian = tested on: OVCAR-8 ovarian
PC-3 prostate = tested on: PC-3 prostate
RPMI-8226 leukemia = tested on: RPMI-8226 leukemia
RXF 393 renal = tested on: RXF 393 renal
SF-268 CNS = tested on: SF-268 CNS
SF-295 CNS = tested on: SF-295 CNS
SF-539 CNS = tested on: SF-539 CNS
SK-MEL-2 melanoma = tested on: SK-MEL-2 melanoma
SK-MEL-28 melanoma = tested on: SK-MEL-28 melanoma
SK-MEL-5 melanoma = tested on: SK-MEL-5 melanoma
SK-OV-3 ovarian = tested on: SK-OV-3 ovarian
SN12C renal = tested on: SN12C renal
SNB-19 CNS = tested on: SNB-19 CNS
SNB-75 CNS = tested on: SNB-75 CNS
SR leukemia = tested on: SR leukemia
SW-620 colon = tested on: SW-620 colon
T-47D breast = tested on: T-47D breast
TK-10 renal = tested on: TK-10 renal
U251 CNS = tested on: U251 CNS
UACC-257 melanoma = tested on: UACC-257 melanoma
UACC-62 melanoma = tested on: UACC-62 melanoma
UO-31 renal = tested on: UO-31 renal
A498 renal = tested on: A498 renal

In the case of C[C@]12CC[C@H]3[C@@H](CCC4=C[C@@H](N5CCCC5)CC[C@@]43C)[C@@H]1C/C(=C\c1ccncc1)[C@@H]2O, the TGI (786-0 renal) is reported as 10.8 µM, the TGI (A549 NSCLC) is reported as 29.1 µM and the TGI (ACHN renal) is reported as 40.6 µM. For the same molecule, the TGI (BT-549 breast) was 38.9 µM, the TGI (CAKI-1 renal) was greater than 100 µM and the TGI (CCRF-CEM leukemia) was greater than 100 µM. The TGI (COLO 205 colon) was 20.7 µM, the TGI (DU-145 prostate) was 39.5 µM and the TGI (EKVX NSCLC) was 49.6 µM. For the same molecule, the TGI (HCC-2998 colon) was 18 µM, the TGI (HCT-116 colon) was 21.1 µM and the TGI (HCT-15 colon) was 26.2 µM. For the same molecule, the TGI (HL-60(TB) leukemia) was 41.8 µM, the TGI (HOP-62 NSCLC) was 18.3 µM and the TGI (HOP-92 NSCLC) was 31.2 µM. The TGI (HS 578T breast) was 36.1 µM, the TGI (HT29 colon) was 11 µM and the TGI (IGROV1 ovarian) was 64.6 µM. It also gave a TGI (K-562 leukemia) greater than 100 µM, a TGI (KM12 colon) of 31 µM and a TGI (LOX IMVI melanoma) of 21.4 µM. The TGI (M14 melanoma) was 5.66 µM, the TGI (MALME-3M melanoma) was 27.8 µM and the TGI (MCF7 breast) was 26.1 µM. For the same molecule, the TGI (MDA-MB-231 breast) was 29.8 µM, the TGI (MDA-MB-435) was 27.1 µM and the TGI (MDA-N) was 24.9 µM. For the same molecule, the TGI (MOLT-4 leukemia) was greater than 100 µM, the TGI (NCI-H226 lung) was 33.7 µM and the TGI (NCI-H23 lung) was 34.2 µM. For the same molecule, the TGI (NCI-H460 lung) was 26.4 µM, the TGI (NCI-H522 lung) was 24.1 µM and the TGI (NCI/ADR-RES ovarian) was 43.9 µM. It also gave a TGI (OVCAR-3 ovarian) of 41.2 µM, a TGI (OVCAR-4 ovarian) of 75.8 µM and a TGI (OVCAR-5 ovarian) of 53.6 µM. It also gave a TGI (OVCAR-8 ovarian) of 63.5 µM, a TGI (PC-3 prostate) of 30.8 µM and a TGI (RPMI-8226 leukemia) of 28.5 µM. It also gave a TGI (RXF 393 renal) of 19 µM, a TGI (SF-268 CNS) of 41.8 µM and a TGI (SF-295 CNS) of 17.6 µM. The TGI (SF-539 CNS) was 28.1 µM, the TGI (SK-MEL-2 melanoma) was 30.9 µM and the TGI (SK-MEL-28 melanoma) was 24.2 µM. For the same molecule, the TGI (SK-MEL-5 melanoma) was 25.2 µM, the TGI (SK-OV-3 ovarian) was 61.7 µM and the TGI (SN12C renal) was 28.5 µM. For the same molecule, the TGI (SNB-19 CNS) was 30.1 µM, the TGI (SNB-75 CNS) was 42.2 µM and the TGI (SR leukemia) was 12.8 µM. It also gave a TGI (SW-620 colon) of 43.6 µM, a TGI (T-47D breast) of 65.8 µM and a TGI (TK-10 renal) of 26.5 µM. For the same molecule, the TGI (U251 CNS) was 28.5 µM, the TGI (UACC-257 melanoma) was 18.7 µM and the TGI (UACC-62 melanoma) was 29.9 µM. It also gave a TGI (UO-31 renal) of 18.4 µM.

With CC12c3c4cccc3Oc3cc(N)cc(c31)Oc1cc(N)cc(c12)O4 the TGI (786-0 renal) was 8.72 µM, the TGI (A498 renal) was 34 µM and the TGI (A549 NSCLC) was greater than 40.7 µM. It also gave a TGI (ACHN renal) of 23.1 µM, a TGI (BT-549 breast) of 13 µM and a TGI (CAKI-1 renal) of 24.9 µM. For the same molecule, the TGI (CCRF-CEM leukemia) was 3.74 µM, the TGI (COLO 205 colon) was 12.1 µM and the TGI (DU-145 prostate) was 22.6 µM. The TGI (EKVX NSCLC) was 9.52 µM, the TGI (HCC-2998 colon) was greater than 39 µM and the TGI (HCT-116 colon) was 9.44 µM. It also gave a TGI (HCT-15 colon) greater than 36.7 µM, a TGI (HOP-62 NSCLC) of 18.2 µM and a TGI (HOP-92 NSCLC) of 74.5 µM. For the same molecule, the TGI (HS 578T breast) was 28.1 µM, the TGI (HT29 colon) was 40.3 µM and the TGI (IGROV1 ovarian) was 13.6 µM. For the same molecule, the TGI (K-562 leukemia) was greater than 51.5 µM, the TGI (KM12 colon) was greater than 39.7 µM and the TGI (LOX IMVI melanoma) was greater than 41.9 µM. For the same molecule, the TGI (M14 melanoma) was 19.6 µM, the TGI (MALME-3M melanoma) was 10.8 µM and the TGI (MCF7 breast) was greater than 40.6 µM. The TGI (MDA-MB-231 breast) was 27.4 µM, the TGI (MDA-MB-435) was 4.4 µM and the TGI (MDA-N) was 3.59 µM. The TGI (MOLT-4 leukemia) was 40.2 µM, the TGI (NCI-H226 lung) was 13.6 µM and the TGI (NCI-H23 lung) was greater than 46 µM. It also gave a TGI (NCI-H460 lung) greater than 37.6 µM, a TGI (NCI-H522 lung) of 4.74 µM and a TGI (NCI/ADR-RES ovarian) greater than 26.3 µM. The TGI (OVCAR-3 ovarian) was 7.04 µM, the TGI (OVCAR-4 ovarian) was 23.9 µM and the TGI (OVCAR-5 ovarian) was 16.1 µM. The TGI (OVCAR-8 ovarian) was 32 µM, the TGI (PC-3 prostate) was 12.1 µM and the TGI (RPMI-8226 leukemia) was greater than 38.1 µM. The TGI (RXF 393 renal) was 2.67 µM, the TGI (SF-268 CNS) was 10.5 µM and the TGI (SF-295 CNS) was 9.2 µM. It also gave a TGI (SF-539 CNS) of 11.8 µM, a TGI (SK-MEL-2 melanoma) of 26.5 µM and a TGI (SK-MEL-28 melanoma) of 27.6 µM. For the same molecule, the TGI (SK-MEL-5 melanoma) was 13 µM, the TGI (SK-OV-3 ovarian) was 14.8 µM and the TGI (SN12C renal) was 28.6 µM. It also gave a TGI (SNB-19 CNS) of 38.5 µM, a TGI (SNB-75 CNS) of 14.7 µM and a TGI (SR leukemia) of 22.6 µM. For the same molecule, the TGI (SW-620 colon) was 22.6 µM, the TGI (T-47D breast) was greater than 48.5 µM and the TGI (TK-10 renal) was 25.3 µM. The TGI (U251 CNS) was greater than 100 µM, the TGI (UACC-257 melanoma) was 18.3 µM and the TGI (UACC-62 melanoma) was 18.5 µM. It also gave a TGI (UO-31 renal) greater than 50.6 µM.
